Earlier results as cited in US10752566B2, “Solvent compositions for use as replacements for slow evaporating solvents” (TBF ENVIRONMENTAL TECHNOLOGY INC., priority 2015, dated 2020).

Settings: PCBTF

FC(F)(F)c1ccc(Cl)cc1 [PCBTF, para-Chlorobenzotrifluoride]
specific gravity: 1.34
